From ChEMBL document CHEMBL6134799, “Auto-RapTAC: A Versatile and Sustainable Platform for the Automated Rapid Synthesis and Evaluation of PROTAC” (J Med Chem, 2025)
Each block holds one compound with its values, some of them ahead of it. Activity calls are given as the source filed them. The rule behind the calls is not given here.

What was measured:
Format in all cases: cell-based
[1] = target: Protein cereblon/Cyclin-dependent kinase 2 (Homo sapiens, UniProt P24941+Q96SW2); assay: Auto-RapTAC activity at CRBN/CDK2 in human NCI-H1299 cells assessed as CDK2 degradation incubated for 24 hrs by Western blot analysis
[2] = target: T1, Protein cereblon/B-cell lymphoma 6 protein (Homo sapiens, UniProt Q96SW2+P41182); assay: Auto-RapTAC activity at CRBN/BCL6 in HEK293T cells expressing GFP-BCL6 (unknown origin) assessed as BCL6 degradation incubated for 24 hrs by fluorescence based analysis
T1 sequence (Q96SW2 whole entry, looked up, other chains not shown): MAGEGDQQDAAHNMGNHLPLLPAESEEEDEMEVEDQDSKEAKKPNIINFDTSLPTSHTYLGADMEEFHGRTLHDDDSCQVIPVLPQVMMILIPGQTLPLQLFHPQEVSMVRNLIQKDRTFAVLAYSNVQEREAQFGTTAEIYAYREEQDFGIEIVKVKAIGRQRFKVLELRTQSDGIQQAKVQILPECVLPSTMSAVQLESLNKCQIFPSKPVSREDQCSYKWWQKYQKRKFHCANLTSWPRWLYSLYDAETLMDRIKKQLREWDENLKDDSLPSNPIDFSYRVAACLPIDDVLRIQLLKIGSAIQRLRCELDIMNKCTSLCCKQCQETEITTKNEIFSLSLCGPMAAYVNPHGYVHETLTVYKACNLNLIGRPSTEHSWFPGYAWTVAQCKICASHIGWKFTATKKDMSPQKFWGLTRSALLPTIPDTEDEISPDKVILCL

[3] = target: T1, Protein cereblon/B-cell lymphoma 6 protein; assay: Auto-RapTAC activity at CRBN/BCL6 in HEK293T cells expressing GFP-BCL6 (unknown origin) assessed as BCL6 degradation at 500 to 1000 nM incubated for 24 hrs by fluorescence based analysis; settings: dose 500-1000 nM
[4] = target: T2, von Hippel-Lindau disease tumor suppressor/Cyclin-dependent kinase 12 (Homo sapiens, UniProt P40337+Q9NYV4); assay: Auto-RapTAC activity at VHL/CDK12 in human HeLa cells assessed as CDK12 degradation at 500 to 1000 nM incubated for 24 hrs by cytoblot analysis relative to control; settings: dose 500-1000 nM
Target sequence in this assay (P40337 whole entry, looked up): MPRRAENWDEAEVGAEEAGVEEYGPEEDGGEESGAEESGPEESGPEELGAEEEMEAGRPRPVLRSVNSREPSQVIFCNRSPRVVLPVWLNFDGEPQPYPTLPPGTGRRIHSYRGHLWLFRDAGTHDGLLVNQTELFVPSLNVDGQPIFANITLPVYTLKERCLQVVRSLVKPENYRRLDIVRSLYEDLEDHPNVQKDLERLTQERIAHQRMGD
Target sequence in this assay (Q9NYV4 whole entry, looked up): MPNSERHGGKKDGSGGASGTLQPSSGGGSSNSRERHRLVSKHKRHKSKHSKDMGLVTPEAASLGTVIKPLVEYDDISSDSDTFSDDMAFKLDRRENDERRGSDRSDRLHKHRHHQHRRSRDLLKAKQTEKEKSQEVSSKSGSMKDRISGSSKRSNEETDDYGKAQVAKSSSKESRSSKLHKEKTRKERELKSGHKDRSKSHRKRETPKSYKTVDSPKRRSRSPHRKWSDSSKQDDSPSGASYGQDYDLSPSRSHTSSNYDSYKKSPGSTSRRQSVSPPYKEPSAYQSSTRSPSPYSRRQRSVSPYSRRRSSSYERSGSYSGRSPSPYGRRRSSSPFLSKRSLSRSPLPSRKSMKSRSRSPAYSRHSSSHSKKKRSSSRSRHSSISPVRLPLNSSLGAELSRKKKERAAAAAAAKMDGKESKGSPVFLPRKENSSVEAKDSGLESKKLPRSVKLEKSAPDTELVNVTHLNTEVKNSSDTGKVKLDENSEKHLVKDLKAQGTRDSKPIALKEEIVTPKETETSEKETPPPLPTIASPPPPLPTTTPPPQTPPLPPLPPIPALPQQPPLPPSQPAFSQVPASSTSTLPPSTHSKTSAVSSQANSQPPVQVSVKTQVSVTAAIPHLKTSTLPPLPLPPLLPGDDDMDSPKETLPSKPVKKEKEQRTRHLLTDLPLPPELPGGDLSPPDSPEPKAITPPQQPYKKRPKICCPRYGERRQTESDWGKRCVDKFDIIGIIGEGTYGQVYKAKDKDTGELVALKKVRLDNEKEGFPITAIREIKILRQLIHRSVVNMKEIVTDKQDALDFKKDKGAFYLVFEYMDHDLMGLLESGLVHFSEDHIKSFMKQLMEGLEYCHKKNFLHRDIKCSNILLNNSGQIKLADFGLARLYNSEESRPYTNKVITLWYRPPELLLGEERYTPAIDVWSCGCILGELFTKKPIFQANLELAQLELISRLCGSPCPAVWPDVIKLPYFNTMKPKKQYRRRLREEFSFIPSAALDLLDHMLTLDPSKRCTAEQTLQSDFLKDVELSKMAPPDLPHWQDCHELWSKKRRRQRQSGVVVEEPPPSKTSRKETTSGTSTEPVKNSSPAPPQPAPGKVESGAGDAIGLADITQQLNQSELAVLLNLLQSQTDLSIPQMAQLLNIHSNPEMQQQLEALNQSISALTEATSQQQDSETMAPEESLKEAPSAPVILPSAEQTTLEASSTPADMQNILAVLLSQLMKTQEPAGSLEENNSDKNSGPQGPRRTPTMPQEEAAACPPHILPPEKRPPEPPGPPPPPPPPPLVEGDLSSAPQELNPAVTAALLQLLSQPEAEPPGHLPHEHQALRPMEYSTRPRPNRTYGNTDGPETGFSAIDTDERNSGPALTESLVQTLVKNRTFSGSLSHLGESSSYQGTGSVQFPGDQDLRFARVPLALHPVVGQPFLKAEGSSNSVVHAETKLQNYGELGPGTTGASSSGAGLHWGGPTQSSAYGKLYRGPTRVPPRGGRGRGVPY

HEK293T = assay: Auto-RapTAC activity at MDM2/BCL6 in HEK293T cells expressing GFP-BCL6 (unknown origin) assessed as BCL6 degradation at 500 to 1000 nM incubated for 24 hrs by fluorescence based analysis; settings: Homo sapiens, dose 500-1000 nM
[5] = target: von Hippel-Lindau disease tumor suppressor/B-cell lymphoma 6 protein (Homo sapiens, UniProt P40337+P41182); assay: Auto-RapTAC activity at VHL/BCL6 in HEK293T cells expressing GFP-BCL6 (unknown origin) assessed as BCL6 degradation incubated for 24 hrs by fluorescence based analysis
Chain of von Hippel-Lindau disease tumor suppressor/B-cell lymphoma 6 protein (P40337 whole entry, looked up, other chains not shown): as the sequence (P40337 whole entry, looked up) above

[6] = target: T2, von Hippel-Lindau disease tumor suppressor/Cyclin-dependent kinase 12; assay: Auto-RapTAC activity at VHL/CDK12 in human HeLa cells assessed as CDK12 degradation incubated for 24 hrs by cytoblot analysis
HeLa [7] = assay: Auto-RapTAC activity at MDM2/CDK12 in human HeLa cells assessed as CDK12 degradation at 500 to 1000 nM incubated for 24 hrs by cytoblot analysis relative to control; settings: dose 500-1000 nM
[8] = (§1) Auto-RapTAC activity at MDM2/CDK12 in human HeLa cells assessed as CDK12 degradation incubated for 24 hrs by cytoblot analysis
HeLa [9] = assay: as §1; settings: dose 500-1000 nM

DC50 [1]: 454 nM
Compound: Cc1ncsc1-c1ccc([C@H](C)NC(=O)[C@@H]2C[C@@H](O)CN2C(=O)[C@H](NC(=O)CCCCCCCCCCn2cc(CCC(=O)N3CCC(NC(=O)c4n[nH]cc4NC(=O)c4c(Cl)cccc4Cl)CC3)nn2)C(C)(C)C)cc1

DC50 [2]: 7 nM
Activity [3]: Active
Compound: CNC(=O)COc1cc2cc(Nc3nc(N4CCC(c5cn(CCCCCCCOc6ccc7c(c6)C(=O)N(C6CCC(=O)NC6=O)C7=O)nn5)CC4)ncc3Cl)ccc2n(C)c1=O (centres undefined)
Activity ([2]; dose 500-1000 nM): Dose-dependent-effect; Hook Effect Was Not Observed

Activity [4]: > 60%
Compound: Cc1ncsc1-c1ccc([C@H](C)NC(=O)[C@@H]2C[C@@H](O)CN2C(=O)[C@H](NC(=O)CCCCCCCCCCn2cc(CCCOc3cc4[nH]c(CNc5nc(N6CCOCC6)nc6c5ncn6C(C)C)nc4cc3F)nn2)C(C)(C)C)cc1

DC50 [1]: 362 nM
Compound: Cc1ncsc1-c1ccc([C@H](C)NC(=O)[C@@H]2C[C@@H](O)CN2C(=O)[C@H](NC(=O)CCCCCCCCCCn2cc(CCC(=O)N3CCC(NC(=O)c4n[nH]cc4NC(=O)c4c(F)cccc4Cl)CC3)nn2)C(C)(C)C)cc1

DC50 [5]: 3.1 nM
Compound: CNC(=O)COc1cc2cc(Nc3nc(N4CCC(c5cn(CCCCCCCCCCC(=O)N[C@@H](C(=O)N6C[C@H](O)C[C@H]6C(=O)N[C@@H](C)c6ccc(-c7scnc7C)cc6)C(C)(C)C)nn5)CC4)ncc3Cl)ccc2n(C)c1=O
Activity (HEK293T): Active
Activity ([5]; dose 500-1000 nM): Dose-dependent-effect; Hook Effect Was Not Observed

DC50 [6]: 2.7 nM
Activity [4]: > 60%
Compound: Cc1ncsc1-c1ccc([C@H](C)NC(=O)[C@@H]2C[C@@H](O)CN2C(=O)[C@H](NC(=O)COCCCCn2cc(CCCOc3cc4[nH]c(CNc5nc(N6CCOCC6)nc6c5ncn6C(C)C)nc4cc3F)nn2)C(C)(C)C)cc1
Activity ([6]; dose 500-1000 nM): Dose-dependent-effect; Hook Effect Was Not Observed

Activity [3]: Active
Compound: CNC(=O)COc1cc2cc(Nc3nc(N4CCC(c5cn(CCCCCCCCCOc6ccc7c(c6)C(=O)N(C6CCC(=O)NC6=O)C7=O)nn5)CC4)ncc3Cl)ccc2n(C)c1=O (centres undefined)

DC50 [8]: 2.4 nM
Compound: CCOC(=O)c1[nH]c2cc(Cl)ccc2c1C(C(=O)NC(C)(C)C)N(Cc1cc(F)c(F)c(F)c1)C(=O)CCCCCCn1cc(CCCOc2cc3[nH]c(CNc4nc(N5CCOCC5)nc5c4ncn5C(C)C)nc3cc2F)nn1 (centres undefined)
Activity (HeLa [7]): > 60%
Activity (HeLa [9]): Dose-dependent-effect; Hook Effect Was Not Observed

Activity [3]: Active
Compound: CNC(=O)COc1cc2cc(Nc3nc(N4CCC(c5cn(CCCCCCCCCCOc6ccc7c(c6)C(=O)N(C6CCC(=O)NC6=O)C7=O)nn5)CC4)ncc3Cl)ccc2n(C)c1=O (centres undefined)

Compound: CCOC(=O)c1[nH]c2cc(Cl)ccc2c1C(C(=O)NC(C)(C)C)N(Cc1cc(F)c(F)c(F)c1)C(=O)CCCCCn1cc(CCCOc2cc3[nH]c(CNc4nc(N5CCOCC5)nc5c4ncn5C(C)C)nc3cc2F)nn1 (centres undefined)
Activity (HeLa [7]): > 60%

Activity [3]: Active
Compound: CNC(=O)COc1cc2cc(Nc3nc(N4CCC(c5cn(CCCCCCCCOc6ccc7c(c6)C(=O)N(C6CCC(=O)NC6=O)C7=O)nn5)CC4)ncc3Cl)ccc2n(C)c1=O (centres undefined)
